Measured values reported in patent US20250320496A1, “MODULATION OF ABCB11 GENE TRANSCRIPTION USING ANTISENSE OLIGONUCLEOTIDES TARGETING REGULATORY RNAS” (CAMP4 Therapeutics Corporation, priority 2022, published 2025).
Strand notation (5' to 3'): a small letter for the sugar, then the base; units joined by * are phosphorothioate-linked, units joined directly phosphodiester-linked; [ ] holds rarer units or linkages, { } end groups; capitals alone tell only the bases. e = 2'-O-(2-methoxyethyl) (MOE); l = locked nucleic acid (LNA); [5mC] = 5-methylcytosine; d = 2'-deoxy (DNA)

Tested on: human ABCB11 mRNA
Assay: ASO treatment of primary human hepatocytes (PHH), ABCB11 mRNA by RT-qPCR normalized to B2M
Assay type: cell-based
Conditions: primary human hepatocytes, 5 μM ASO, normalized to untreated PHHs (UNT)
How it was run: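 Plated primary human hepatocytes were treated 4 h post-thaw with ASO (e.g., 1.25–10 μM; initial screen 5 μM) in medium containing 0.3 mg/ml Matrigel for 72 hrs. Total RNA was reverse-transcribed and ABCB11 mRNA measured by Taqman RT-qPCR, normalized to B2M, with fold change versus untreated PHHs.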

Row | Substance | ABCB11 mRNA FC (5 μM ASO vs. UNT) [fold change]
1 | CO-6674 (antisense eT*eG*eG*eA*eA*eG*eG*eA*e[5mC]*eA*e[5mC]*eA*eA*eT*eT*eT*e[5mC]*eT*eG*eT) | 1.175
2 | CO-6675 (antisense eA*eG*e[5mC]*eA*eA*eG*e[5mC]*eT*eG*eT*eG*eT*eG*eG*eA*eA*eG*eG*eA*e[5mC]) | 1.346
3 | CO-6676 (antisense eT*eA*eA*eA*eG*e[5mC]*eA*eA*eG*e[5mC]*eT*eG*eT*eG*eT*eG*eG*eA*eA*eG) | 1.204
4 | CO-6966 (antisense eA*eT*eG*eA*eA*eT*eG*eG*e[5mC]*eA*eA*eG*eG*eA*eG*eA*eG*eG*eA*eT) | 1.177
5 | CO-6967 (antisense eG*eA*eT*eG*eT*eA*eG*eA*eT*eG*eA*eA*eT*eG*eG*e[5mC]*eA*eA*eG*eG) | 1.405
6 | CO-6968 (antisense eT*eG*eG*eA*eT*dG*dT*dA*dG*dA*dT*dG*dA*dA*dT*eG*eG*e[5mC]*eA*eA) | 1.373
7 | CO-6969 (antisense eT*eG*eT*eG*eG*eA*eT*eG*eT*eA*eG*eA*eT*eG*eA*eA*eT*eG*eG*e[5mC]) | 1.266
8 | CO-6971 (antisense eA*eT*eG*eG*eG*eT*eG*eT*eG*eG*eA*eT*eG*eT*eA*eG*eA*eT*eG*eA) | 1.091
9 | CO-6972 (antisense eA*eA*eA*eT*eG*eG*eG*eT*eG*eT*eG*eG*eA*eT*eG*eT*eA*eG*eA*eT) | 1.207
10 | CO-6973 (antisense eA*eA*eA*eA*eA*eT*eG*eGeGeT*eGeT*eG*eG*eA*eT*eG*eT*eA*eG) | 1.325
11 | CO-6974 (antisense eT*eG*eG*eG*eA*eA*eG*eT*eT*eT*eA*eA*eA*eA*eA*eA*eT*eG*eG*eG) | 1.394
12 | CO-6975 (antisense e[5mC]*eT*eG*eA*eA*eG*eT*eG*eG*eA*eG*eG*eT*eG*eG*eT*eG*eG*eA*eA) | 1.34
13 | CO-6976 (antisense eT*e[5mC]*e[5mC]*eT*eG*eA*eA*eG*eT*eG*eG*eA*eG*eG*eT*eG*eG*eT*eG*eG) | 1.373
14 | CO-6977 (antisense eG*eG*eT*eA*eA*eG*eT*eT*e[5mC]*e[5mC]*eT*eG*eA*eA*eG*eT*eG*eG*eA*eG) | 1.15
15 | CO-6978 (antisense eG*eA*eG*eG*e[5mC]*eA*eT*e[5mC]*eA*eG*eG*eT*eA*eA*eG*eT*eT*e[5mC]*e[5mC]*eT) | 1.456
16 | CO-6979 (antisense eG*eT*eG*eA*eG*dG*d[5mC]*dA*dT*d[5mC]*dA*dG*dG*dT*dA*eA*eG*eT*eT*e[5mC]) | 1.201
17 | CO-6981 (antisense eA*e[5mC]*eA*eG*eA*eA*eG*eT*eG*eA*eG*eG*e[5mC]*eA*eT*e[5mC]*eA*eG*eG*eT) | 1.164
18 | CO-6982 (antisense eA*eA*eG*eA*e[5mC]*eA*eG*eA*eA*eG*eT*eG*eA*eG*eG*e[5mC]*eA*eT*e[5mC]*eA) | 0.976
19 | CO-6983 (antisense eA*eG*eA*eA*eG*eA*e[5mC]*eA*eG*eA*eA*eG*eT*eG*eA*eG*eG*e[5mC]*eA*eT) | 1.065
20 | CO-6984 (antisense eT*eG*eA*eG*eG*eT*e[5mC]*eT*eA*eA*eT*eT*eT*eA*eG*eA*eA*eG*eA*e[5mC]) | 1.127
21 | CO-6985 (antisense eT*eG*eG*eA*eT*lG*dT*dA*lG*dA*dT*lG*dA*dA*lT*eG*eG*e[5mC]*eA*eA) | 1.414
22 | CO-6986 (antisense eT*eG*eG*lA*eT*dG*dT*lA*dG*dA*dT*lG*dA*dA*dT*lG*eG*e[5mC]*eA*eA) | 0.998
23 | CO-6987 (antisense eT*eG*eG*eA*lT*dG*dT*dA*lG*dA*dT*dG*lA*dA*dT*eG*lG*e[5mC]*eA*eA) | 1.026
